In this test the test system is subcutaneous AsPC1 tumors. Put plainly: Efficacy study in mice bearing subcutaneous AsPC1 tumors (tumor volume). As to conditions: ^177Lu-IPN01087 20 MBq/mouse IV weekly x3; NAPOX: oxaliplatin 3.75 mg/kg, liposomal irinotecan 16 mg/kg, folinic acid 75 mg/kg, 5-FU 37.5 mg/kg weekly x2; Groups 2, 3, 5 vs vehicles. In kind it is in vivo, SWISS Nude mice. The method, then:
The AsPC1 cell line was isolated from a metastatic site (ascites) from a patient (Chen WH. et al., In Vitro. 1982 January; 18(1):24-34).
Tumor cells were grown as monolayer at 37° C. in a humidified atmosphere (5% CO2, 95% air). The culture medium is RPMI 1640 containing glutamax supplemented with 10% heat inactivated fetal bovine serum, sodium pyruvate and hepes. For experimental use, tumor cells were detached from the culture flask using accutase and neutralized by addition of complete culture medium. The cells were counted and their viability was assessed by 0.25% trypan blue exclusion assay. Two frozen pellets of AsPC-1 tumor cells were prepared: one frozen cell pellet prepared during the in-vitro cell culture, and one frozen cell pellet prepared using the cell suspension used for tumor induction in mice.
One hundred fifty (150) healthy female SWISS Nude mice (Crl:NU(Ico)-Foxn1 nu), 6-7 weeks old at reception, were obtained from Charles River.
Tumors were induced by subcutaneous injection of ten million (10^7) AsPC-1 cells in 200 μL of RPMI 1640 medium containing matrigel (50:50, v:v, ref: 356237, BD Biosciences, France) into the right flank (in the axis of the heart) of 150 female animals. […]
The treatment efficacy was assessed in terms of the effects of the treatments on the tumor volumes of treated animals relative to control animals. […]

In the case of “^177Lu-zalsenertant tetraxetan [^177Lu-IPN01087]”, the “AsPC-1 tumor growth (tumor volume), FIG. 2” value is listed as “produced an antitumor effect when compared to the vehicles”.

Values taken from patent US20240207455A1, “COMBINATION COMPRISING A NEUROTENSIN RECEPTOR BINDING COMPOUND AND NAPOX” (Fusion Pharmaceuticals Inc., priority 2021, published 2024).
